Measurements from paper PMC6009889, “Kinetic and structural studies on the interactions of Torpedo californica acetylcholinesterase with two donepezil-like rigid analogues” (Journal of Enzyme Inhibition and Medicinal Chemistry, 2018).
Read-outs that look alike come from different tables or passages of the source.

How the values were obtained:
[1] = biological target: Torpedo californica AChE (TcAChE) (Tetronarce californica, UniProt P04058); experiment: biochemical; assay type: biochemical; conditions: for Type of inhibition: Lineweaver-Burk, Dixon and Cornish-Bowden plots
Method: The enzymatic activity of TcAChE was evaluated spectrophotometrically at room temperature by Ellman’s method[42] using a GE Ultrospec 7000 double beam spectrophotometer. […] The reaction was initiated by addition to the reaction mixture of the substrate acetylthiocoline (Sigma-Aldrich, Milan, Italy). To gain insights into the mechanism of action of 1, 2 and DNP, reciprocal plots of 1/velocity versus 1/[substrate] were constructed at substrate concentration in the 10–200 µM range. Data points are average values of three replicates. Three concentrations of inhibitors were selected for this study: 5, 10, and 20 nM. The plots were assessed by a weighted least-squares analysis that assumed the variance of the velocity (v) to be a constant percentage of v for the entire data set. Calculation of the inhibitor constant (Ki) value was carried out by re-plotting slopes of lines from the Lineweaver–Burk plot versus the inhibitor concentration and Ki was determined as the intersect on the negative x-axis. The apparent Ki’ (dissociation constant for the enzyme–substrate–inhibitor complex) value was determined by plotting the apparent 1/vmax versus inhibitor concentration. Data analyzes were performed with Graph 4.4.2.

[2] = test system: mouse BACE-1; conditions: read-out: IC50 for mouse BACE-1 inhibition; cited from earlier work

Sequence of Torpedo californica AChE (TcAChE) (P04058 22-586): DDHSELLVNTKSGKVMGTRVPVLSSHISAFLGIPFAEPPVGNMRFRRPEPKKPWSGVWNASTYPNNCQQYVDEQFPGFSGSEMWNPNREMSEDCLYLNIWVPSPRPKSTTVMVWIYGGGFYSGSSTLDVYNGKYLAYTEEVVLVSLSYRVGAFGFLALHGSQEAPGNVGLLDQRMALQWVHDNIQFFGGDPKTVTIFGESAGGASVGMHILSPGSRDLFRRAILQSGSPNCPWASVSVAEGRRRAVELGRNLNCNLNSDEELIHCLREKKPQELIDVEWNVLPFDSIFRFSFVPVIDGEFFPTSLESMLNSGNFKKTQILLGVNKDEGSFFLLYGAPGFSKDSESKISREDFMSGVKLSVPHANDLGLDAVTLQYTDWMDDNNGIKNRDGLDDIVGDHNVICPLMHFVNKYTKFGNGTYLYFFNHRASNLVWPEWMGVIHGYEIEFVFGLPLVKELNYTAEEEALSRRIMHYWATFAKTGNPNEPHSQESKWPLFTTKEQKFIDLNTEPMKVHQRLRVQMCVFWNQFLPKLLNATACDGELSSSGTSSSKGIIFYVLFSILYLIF

Row | Compound | Type of inhibition [1] | Ki ([1]; acetylthiocholine 10–200 µM, inhibitor 5, 10, 20 nM, K-phosphate buffer pH 7.0, room temperature, read-out: Ki (dissociation constant for free enzyme)) [nM] | IC50 [2] [nM] | Ki [1] [nM]
1 | COc1ccc2c(c1)C/C(=C\C1CCN(Cc3ccccc3)CC1)C2=O [compound 2] | mixed-type inhibition | 29.9 ± 1.12 | 333 | –
3 | COc1cc2c(cc1OC)C(=O)/C(=C/C1CCN(Cc3ccccc3)CC1)C2 [compound 1] | mixed-type inhibition | – | 697 | 11.1 ± 2.88
